Experimental data: patent US4879381A, “7-(substituted or unsubstituted amino) 3-substituted methyl-^3 cephem-4-carboxylic acid” (Toyoma Chemical Company, Ltd., priority 1980, dated 1989)
Structures can show the parent of a compound that is named as a salt. Where two headings read alike, the source gives them in different places.

What was measured:
in vivo = settings: mouse, intravenous, mice
Text: Three test compounds were introvenously administered to mice (ICR, male, 4 weeks old) to test their acute toxicities.

E. coli NIHJ = assay: Antibacterial activity (MIC, agar plate, standard method of the Japanese Chemotherapeutic Society); type: cell-based; settings: Escherichia coli, 10^4 cells/plate, 37° C., 20 hours, read-out: MIC
Experimental: (§1) According to the standard method of the Japanese Chemotherapeutic Society [Chemotherapy, Vol. 23, Pages 1-2 (1975)], a culture obtained by cultivating bacteria in Heart Infusion broth (manufactured by Eken Kagakusha) at 37° C. for 20 hours was inoculated into a Heart Infusion agar medium (manufactured by Eiken Kagakusha) and cultivated at 37° C. for 20 hours, after which the growth of bacteria was examined visually. The minimum inhibitory concentration at which the bacterial growth was inhibited was taken as MIC (μg/ml). The amount of the inoculated bacteria was 10^4 cells/plate (10^6 cells/ml).

Pro. mirabilis T-100 = assay: Antibacterial activity (MIC, agar plate); type: cell-based; settings: Proteus mirabilis, T100, 10^4 cells/plate, 37° C., 20 hours, read-out: MIC
Experimental: as §1

Kl. pneumoniae Y-50 = assay: Antibacterial activity (MIC, agar plate); type: cell-based; settings: Klebsiella pneumoniae, Y50, 10^4 cells/plate, 37° C., 20 hours, read-out: MIC
Experimental: as §1

Kl. pneumoniae Y-41 = assay: Antibacterial activity (MIC, agar plate); type: cell-based; settings: Klebsiella pneumoniae, Y41; Kl. pneumoniae Y-41; 10^4 cells/plate, 37° C., 20 hours; read-out: MIC
Experimental: as §1

Klebsiella spp Y-72 = assay: Antibacterial activity (MIC, agar plate); type: cell-based
Experimental: as §1

Ent. cloacae IID977 = assay: Antibacterial activity (MIC, agar plate); type: cell-based; settings: Enterobacter cloacae, 10^4 cells/plate, 37° C., 20 hours, read-out: MIC
Experimental: as §1

Al. faecalis B-1 = assay: Antibacterial activity (MIC, agar plate); type: cell-based; settings: Alcaligenes faecalis
Experimental: as §1

[1] = system: E. coli TK3 (Penicillinase-producing bacteria); assay: Antibacterial activity (MIC, agar plate); type: cell-based; settings: Escherichia coli; E. coli TK3 (penicillinase-producing); 10^4 cells/plate, 37° C., 20 hours; read-out: MIC
Experimental: as §1

Aci. calcoaceticus A-6 = assay: Antibacterial activity (MIC, agar plate); type: cell-based; settings: Acinetobacter calcoaceticus, A6, 10^4 cells/plate, 37° C., 20 hours, read-out: MIC
Experimental: as §1

Ser. marcescens IID620 = assay: Antibacterial activity (MIC, agar plate); type: cell-based; settings: Serratia marcescens, IID620, 20 h
Experimental: as §1

Pro. morganii T-216 = assay: Antibacterial activity (MIC, agar plate); type: cell-based; settings: Morganella morganii, T216, 20 h
Experimental: as §1

[2] = system: Pro. vulgaris GN76 (Cephalosporinase-producing bacteria); assay: Antibacterial activity (MIC, agar plate); type: cell-based; settings: Proteus vulgaris; Pro. vulgaris GN76 (cephalosporinase-producing); 10^4 cells/plate, 37° C., 20 hours; read-out: MIC
Experimental: as §1

Pro. mirabilis T-111 = assay: Antibacterial activity (MIC, agar plate); type: cell-based; settings: Proteus mirabilis, T111, 20 h
Experimental: as §1

SMILES | LD50 (in vivo) [mg/kg] | MIC (E. coli NIHJ) [µg/mL] | MIC (Pro. mirabilis T-100) [µg/mL] | MIC (Kl. pneumoniae Y-50) [µg/mL] | MIC (Kl. pneumoniae Y-41) [µg/mL] | MIC (Klebsiella spp Y-72; Y72, Klebsiella spp Y-72, 10^4 cells/plate, 37° C., 20 hours, read-out: MIC) [µg/mL] | MIC (Ent. cloacae IID977) [µg/mL] | MIC (Al. faecalis B-1; B1, Al. faecalis B-1, 10^4 cells/plate, 37° C., 20 hours, read-out: MIC) [µg/mL] | MIC [1] [µg/mL] | MIC (Aci. calcoaceticus A-6) [µg/mL] | MIC (Ser. marcescens IID620) [µg/mL] | MIC (Pro. morganii T-216) [µg/mL] | MIC [2] [µg/mL] | MIC (Pro. mirabilis T-111) [µg/mL] | MIC (Klebsiella spp Y-72; Klebsiella, Y72, 20 h) [µg/mL] | MIC (Al. faecalis B-1; B1, 20 h) [µg/mL]
Cc1nnn(CC2=C(C(=O)O)N3C(=O)C(NC(=O)Cc4csc(N)n4)C3SC2)n1 (stereo not drawn) | > 3000 |  |  |  |  |  |  |  |  |  |  |  |  |  |  | 
CO/N=C(\C(=O)NC1C(=O)N2C(C(=O)O)=C(Cc3ccc(O)cc3)CSC12)c1csc(N)n1 (stereo not drawn) [D, Trifluoroacetic acid salt of 7-[2-(2-aminothiazol-4-yl)-2-(syn)-methoxyiminoacetamido]-3-(4-hydroxybenzyl)-Δ^3-cephem-4-carboxylic acid] |  | ≤ 0.1 | ≤ 0.1 | 0.2 | 0.78 | 6.25 | 25 | 25 | 1.56 | 6.25 | 3.13 | 0.78 | 1.56 | 0.78 |  | 
Cc1nnn(CC2=C(C(=O)O)N3C(=O)C(NC(=O)/C(=N\O)c4csc(N)n4)C3SC2)n1 (stereo not drawn) [E, Trifluoroacetic acid salt of 7-[2-(2-aminothiazol-4-yl)-2-(syn)-hydroxyiminoacetamido]-3-(2-(5-methyl-1,2,3,4-tetrazolyl)methyl]-Δ^3-cephem-4-carboxylic acid] |  | ≤ 0.1 | ≤ 0.1 | ≤ 0.1 | 0.2 |  | 6.25 |  | 0.78 | 50 | 3.13 | ≤ 0.1 | 6.25 | 0.39 | 3.13 | 3.13
